From patent US20240025906A1 (NEURON23, INC., priority 2022, published 2024)
Where two headings read alike, the source gives them in different places.

Legend:
[1] = biological target: T1, TYK2 JH2 (Homo sapiens, UniProt P29597); experiment: TYK2 JH2 binding assay (KINOMEscan KdELECT competitive binding); conditions: TYK2 JH2 domain
T1 construct: purchased DiscoverX (KINOMEscan KdELECT service); host or cells: E. coli BL21-derived (T7 phage display) or HEK-293
How it was run: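 Kd values come from qPCR measurement of kinase retained on an immobilized-ligand resin after 1 h room-temperature competition with compound in an 11-point, 3-fold series.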

[2] = system: JAK1/TYK2 pSTAT5 (Tyr694/699) in THP-1 cell line; experiment: IFNa-stimulated JAK1/TYK2 pSTAT5 (Tyr694/699) inhibition cellular assay, AlphaLISA; type: cell-based; conditions: THP-1 cells, AlphaLISA (Assay B)
How it was run: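 THP-1, 2e4 cells/well, HBSS; cpd 1 h 37 °C (10000–0.04 nM final, 6-fold, 8 pt); IFNa 100 ng/mL added, 30 min; lyse, freeze −80 °C; pSTAT5 AlphaLISA, 615 nm; 4PL IC50, bottom fixed 0, slope −1.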

[3] = DiscoverX KINOMEscan KdELECT (Assay A), read-out: Biochemical TYK2_DiscoverX_JH2_BND_Kd
[4] = Homo sapiens, IFNa-stimulated, read-out: Cellular_THP1_IFNa-pSTATS_TYK2
[5] = KINOMEscan KdELECT (Assay A), read-out: Biochemical TYK2_DiscoverX_JH2_BND_Kd
[6] = Homo sapiens, IFNa-stimulated pSTAT5 (Tyr694/699), read-out: Cellular_THP1_IFNa-pSTATS_TYK2
[7] = KINOMEscan KdELECT (Assay A), read-out: Biochemical TYK2_JH2_Kd
[8] = Homo sapiens, IFNa-stimulated, read-out: Cellular THP1_IFNa-pSTATS_IC50

T1 sequence (P29597 589-875 limits assumed): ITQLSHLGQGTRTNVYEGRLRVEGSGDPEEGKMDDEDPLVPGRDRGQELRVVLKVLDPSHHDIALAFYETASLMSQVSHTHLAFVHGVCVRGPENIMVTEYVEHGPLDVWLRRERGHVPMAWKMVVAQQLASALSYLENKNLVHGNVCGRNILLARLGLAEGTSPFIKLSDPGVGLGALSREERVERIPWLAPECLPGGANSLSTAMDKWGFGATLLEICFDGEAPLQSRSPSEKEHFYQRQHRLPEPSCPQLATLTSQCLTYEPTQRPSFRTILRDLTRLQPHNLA

Row | Compound | Kd [1, 3] | IC50 [2, 4] | Kd [1, 5] | other results
1 | CNc1ncc(-c2nc3ccc(N4CCOCC4)cn3n2)c2cc(NC(=O)[C@H](C)F)ncc12 (single isomer, unassigned) [Example 533] | ≤ 100 nM | > 500 nM | – | –
2 | CNc1ncc(-c2nc3cc(C4COC4)ccc3o2)c2cc(NC(=O)C3CC3)ncc12 [Example 258, N-(8-(methylamino)-5-(5-(oxetan-3-yl)benzo[d]oxazol-2-yl)-2,7-naphthyridin-3-yl)cyclopropanecarboxamide] | ≤ 100 nM | ≤ 500 nM | – | –
3 | CNc1ncc(-c2nc3cc(-c4nc[nH]n4)ccc3o2)c2cc(NC(=O)C3CC3)ncc12 [Example 445, N-(5-(5-(1H-1,2,4-triazol-3-yl)benzo[d]oxazol-2-yl)-8-(methylamino)-2,7-naphthyridin-3-yl)cyclopropanecarboxamide] | ≤ 100 nM | ≤ 500 nM | – | –
4 | CNc1ncc(-c2nc3ccc(C4=CCOCC4)cn3n2)c2cc(NC(=O)C3CC3)ncc12 [Example 1034] | – | – | ≤ 100 nM | IC50 [2, 6]: ≤ 500 nM
5 | C=Cc1cc2cc(NC(=O)C3CC3)ncc2c(NC)n1 [Example 164, N-(8-(methylamino)-6-vinyl-2,7-naphthyridin-3-yl)cyclopropanecarboxamide] | – | – | – | Kd [1, 7]: 100 to 1000 nM; IC50 [2, 8]: > 500 nM
6 | CNc1ncc(-c2nc3ccc(N4C[C@@H](C)O[C@@H](C)C4)cn3n2)c2cc(NC(=O)[C@@H]3C[C@@H]3F)ncc12 [Example 554, (1S,2S)—N-(5-(6-((2R,6S)-2,6-dimethylmorpholino)-[1,2,4]triazolo[1,5-a]pyridin-2-yl)-8-(methylamino)-2,7-naphthyridin-3-yl)-2-fluoracyclopropane-1-carboxamide] | ≤ 100 nM | – | – | IC50 ([2]; IFNa-stimulated, read-out: Cellular_THP1_IFNa-pSTATS_TYK2): ≤ 500 nM
7 | CNc1ncc(-c2ccccc2F)c2cc(NC(=O)C3CC3)ncc12 [Example 17, N-(5-(2-fluorophenyl)-8-(methylamino)-2,7-naphthyridin-3-yl)cyclopropanecarboxamide] | – | – | – | Kd [1, 7]: ≤ 100 nM; IC50 [2, 8]: > 500 nM
8 | CNc1ncc(-c2ccc3c(c2)OCO3)c2cc(NC(=O)C3CC3)ncc12 [Example 21, N-(5-(benzo[d][1,3]dioxol-5-yl)-8-(methylamino)-2,7-naphthyridin-3-yl)cyclopropanecarboxamide] | – | – | – | Kd [1, 7]: ≤ 100 nM; IC50 [2, 8]: > 500 nM
9 | CNc1ncc(-c2nc3cc(OCC(F)F)ccc3o2)c2cc(NC(=O)C3CC3)ncc12 [Example 247, N-(5-(5-(2,2-difluoroethoxy)benzo[d]oxazol-2-yl)-8-(methylamino)-2,7-naphthyridin-3-yl)cyclopropanecarboxamide] | ≤ 100 nM | ≤ 500 nM | – | –
10 | CNc1ncc(C#Cc2ccc3c(c2)C(=O)N(C)C3)c2cc(NC(=O)C3CC3)ncc12 [Example 1017, N-(5-((2-methyl-3-oxoisoindolin-5-yl)ethynyl)-8-(methylamino)-2,7-naphthyridin-3-yl)cyclopropanecarboxamide] | – | – | ≤ 100 nM | IC50 [2, 6]: ≤ 500 nM
11 | CNc1ncc(-c2nc3cc(OC4CN(C(C)=O)C4)ccc3o2)c2cc(NC(=O)C3CC3)ncc12 [Example 230, N-(5-(5-((1-acetylazetidin-3-yl)oxy)benzo[d]oxazol-2-yl)-8-(methylamino)-2,7-naphthyridin-3-yl)cyclopropanecarboxamide] | ≤ 100 nM | ≤ 500 nM | – | –
12 | CNc1ncc(-c2ccn(CC#N)n2)c2cc(NC(=O)C3CC3)ncc12 [Example 87, N-(5-(1-(cyanomethyl)-1H-pyrazol-3-yl)-8-(methylamino)-2,7-naphthyridin-3-yl)cyclopropanecarboxamide] | – | – | – | Kd [1, 7]: ≤ 100 nM; IC50 [2, 8]: > 500 nM
13 | CNc1ncc(-c2nc3cc(N4CCC(F)(F)C4)ccc3o2)c2cc(NC(=O)C3CC3)ncc12 [Example 942, N-(5-(5-(3,3-difluoropyrrolidin-1-yl)benzo[d]oxazol-2-yl)-8-(methylamino)-2,7-naphthyridin-3-yl)cyclopropanecarboxamide] | – | ≤ 500 nM | ≤ 100 nM | –

Second part, led by results:

Row | Kd [1, 3] | IC50 [2, 4] | Kd [1, 5] | Compound | other results
14 | – | ≤ 500 nM | ≤ 100 nM | CNc1ncc(-c2nc3cc(OC)ccc3s2)c2cc(NC(=O)C3CC3)ncc12 [Example 930, N-(5-(5-methoxybenzo[d]thiazol-2-yl)-8-(methylamino)-2,7-naphthyridin-3-yl)cyclopropanecarboxamide] | –
15 | ≤ 100 nM | > 500 nM | – | [2H]C([2H])([2H])Nc1ncc(-c2nc3ccc(C)cn3n2)c2cc(NC(=O)C3(F)CC3)ncc12 [Example 577, 1-fluoro-N-(8-((methyl-d3)amino)-5-(6-methyl-[1,2,4]triazolo[1,5-a]pyridin-2-yl)-2,7-naphthyridin-3-yl)cyclopropane-1-carboxamide] | –
16 | – | – | ≤ 100 nM | CNc1ncc(C#Cc2cccc3c2CCCC3=O)c2cc(NC(=O)C3CC3)ncc12 [Example 1019, N-(8-(methylamino)-5-((5-oxo-5,6,7,8-tetrahydronaphthalen-1-yl)ethynyl)-2,7-naphthyridin-3-yl)cyclopropanecarboxamide] | IC50 [2, 6]: ≤ 500 nM
17 | – | ≤ 500 nM | ≤ 100 nM | CNc1ncc(C#Cc2ccc3oc(C)nc3c2)c2cc(NC(=O)C3CC3)ncc12 [Example 801, N-(8-(methylamino)-5-((2-methylbenzo[d]oxazol-5-yl)ethynyl)-2,7-naphthyridin-3-yl)cyclopropanecarboxamide] | –
18 | – | ≤ 500 nM | ≤ 100 nM | CNc1ncc(/C=C/c2ccc(CC#N)cc2)c2cc(NC(=O)C3CC3)ncc12 [Example 783, (E)-N-(5-(4-(cyanomethyl)styryl)-8-(methylamino)-2,7-naphthyridin-3-yl)cyclopropanecarboxamide] | –
19 | ≤ 100 nM | ≤ 500 nM | – | CNc1ncc(-c2nc3cc(C)ccc3o2)c2cc(NC(=O)C3CC3)ncc12 [Example 207, N-(8-(methylamino)-5-(5-methylbenzo[d]oxazol-2-yl)-2,7-naphthyridin-3-yl)cyclopropanecarboxamide] | –
20 | – | ≤ 500 nM | ≤ 100 nM | CNc1ncc(-c2nc3ccc(N4CCOCC4)cn3n2)c2cc(NC(=O)C3CC3)nnc12 [Example 885, N-(8-(methylamino)-5-(6-morpholino-[1,2,4]triazolo[1,5-a]pyridin-2-yl)pyrido[3,4-c]pyridazin-3-yl)cyclopropanecarboxamide] | –
21 | ≤ 100 nM | ≤ 500 nM | – | CNc1ncc(-c2nc3ccc(C)cn3n2)c2cc(NC(=O)[C@H]3C[C@H]3C)ncc12 [Example 562, (1S,2R)-2-methyl-N-(5-(6-methyl-[1,2,4]triazolo[1,5-a]pyridin-2-yl)-8-(methylamino)-2,7-naphthyridin-3-yl)cyclopropane-1-carboxamide] | –
22 | – | ≤ 500 nM | ≤ 100 nM | CNc1ncc(C#Cc2ccncc2OC)c2cc(NC(=O)C3CC3)ncc12 [Example 612, N-(5-((3-methoxypyridin-4-yl)ethynyl)-8-(methylamino)-2,7-naphthyridin-3-yl)cyclopropanecarboxamide] | –
23 | – | ≤ 500 nM | ≤ 100 nM | CNc1ncc(C#Cc2ncc(OC)cc2C(F)F)c2cc(NC(=O)C3CC3)ncc12 [Example 976, N-(5-((3-(difluoromethyl)-5-methoxypyridin-2-yl)ethynyl)-8-(methylamino)-2,7-naphthyridin-3-yl)cyclopropanecarboxamide] | –
24 | – | – | ≤ 100 nM | CNc1ncc(-c2nc3ccc(C4CCOCC4)cn3n2)c2cc(NC(=O)C3CC3)ncc12 [Example 1035] | IC50 [2, 6]: ≤ 500 nM
